Toxic doses and inconclusive results are not listed. Rule as the data show it: active = T/C of 150% or more; inactive = T/C below 125%.
Tested on: L1210 leukemia ip in BDF1 mice, survival T/C
Assay: NCI In Vivo Anticancer Drug Screen. Data for tumor model L1210 Leukemia (intraperitoneal) in B6D2F1 (BDF1) mice
Details: endpoint: mean survival time, higher = longer survival
Outline: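 Transplanted-tumor mice were given test agent; controls received vehicle only. Survival readings from the two groups were divided (treated over control).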

[1] = dose: 100.0 mg/kg/injection, schedule: Q04DX003 (ip), vehicle: saline with Tween-80
[2] = dose: 200.0 mg/kg/injection, schedule: Q04DX003 (ip), vehicle: saline with Tween-80
[3] = dose: 50.0 mg/kg/injection, schedule: Q01DX009 (ip), vehicle: saline
[4] = dose: 100.0 mg/kg/injection, schedule: Q01DX009 (ip), vehicle: saline
[5] = dose: 200.0 mg/kg/injection, schedule: Q01DX009 (ip), vehicle: saline
[6] = dose: 12.5 mg/kg/injection, schedule: Q01DX009 (ip), vehicle: Klucel (hydroxypropylcellulose) (HPC)
[7] = dose: 100.0 mg/kg/injection, schedule: Q01DX009 (ip), vehicle: saline with Tween-80
[8] = dose: 200.0 mg/kg/injection, schedule: Q01DX009 (ip), vehicle: saline with Tween-80
[9] = dose: 400.0 mg/kg/injection, schedule: Q01DX009 (ip), vehicle: saline with Tween-80
[10] = dose: 400.0 mg/kg/injection, schedule: Q04DX003 (ip), vehicle: saline with Tween-80
[11] = dose: 100.0 mg/kg/injection, schedule: Q01DX009 (ip), vehicle: Klucel (hydroxypropylcellulose) (HPC)
[12] = dose: 200.0 mg/kg/injection, schedule: Q01DX009 (ip), vehicle: Klucel (hydroxypropylcellulose) (HPC)
[13] = dose: 400.0 mg/kg/injection, schedule: Q01DX009 (ip), vehicle: Klucel (hydroxypropylcellulose) (HPC)
[14] = dose: 100.0 mg/kg/injection, schedule: Q01DX001 (ip), vehicle: saline
[15] = dose: 200.0 mg/kg/injection, schedule: Q01DX001 (ip), vehicle: saline
[16] = dose: 50.0 mg/kg/injection, schedule: Q01DX001 (ip), vehicle: saline
[17] = dose: 100.0 mg/kg/injection, schedule: Q01DX001 (ip), vehicle: saline with Tween-80

Measured: T/C

CCC(C)C(CN)(CCCCN(C)C)c1cccc2ccccc12 (centres undefined)
inactive: [1] 97 % of control | [2] 100 % of control

CC1C(=O)OC2CC[N+]3(C)CC=C(COC(=O)C(C)(O)C1(C)O)C23 (centres undefined)
inactive: [3] 92 % of control | [4] 100 % of control | [5] 92 % of control

CCOP(=O)(OCC)Oc1c(Cl)c(Cl)c(O)c(Cl)c1Cl
inactive: dose: 100.0 mg/kg/injection, schedule: Q04DX002 (ip), vehicle: saline with Tween-80 91 % of control | dose: 200.0 mg/kg/injection, schedule: Q04DX002 (ip), vehicle: saline with Tween-80 100 % of control

COc1cc(C=C(C#N)C#N)ccc1O
inactive: [6] 103 % of control | dose: 25.0 mg/kg/injection, schedule: Q01DX009 (ip), vehicle: Klucel (hydroxypropylcellulose) (HPC) 97 % of control

COc1ccccc1C1N(C)CCCN1C
inactive: dose: 6.25 mg/kg/injection, schedule: Q04DX003 (ip), vehicle: saline 96 % of control | dose: 12.5 mg/kg/injection, schedule: Q04DX003 (ip), vehicle: saline 92 % of control | dose: 25.0 mg/kg/injection, schedule: Q04DX003 (ip), vehicle: saline 101 % of control

CCOC(=O)Nc1ccc(F)cc1OC
inactive: dose: 100.0 mg/kg/injection, schedule: Q04DX002 (ip), vehicle: other 107 % of control | dose: 200.0 mg/kg/injection, schedule: Q04DX002 (ip), vehicle: other 104 % of control | dose: 400.0 mg/kg/injection, schedule: Q04DX002 (ip), vehicle: other 96 % of control

CC1CN(c2nc3ccccc3o2)C(C)CN1c1nc2ccccc2o1 (centres undefined)
inactive: dose: 100.0 mg/kg/injection, schedule: Q01DX001 (ip), vehicle: carboxymethylcellulose (CMC) 96 % of control | dose: 200.0 mg/kg/injection, schedule: Q01DX001 (ip), vehicle: carboxymethylcellulose (CMC) 94 % of control | dose: 400.0 mg/kg/injection, schedule: Q01DX001 (ip), vehicle: carboxymethylcellulose (CMC) 89 % of control

CC(=O)N(C)Nc1ccccc1
inactive: [7] 116 % of control | [1] 91 % of control | [8] 97 % of control | [2] 91 % of control | [9] 90 % of control | [10] 106 % of control

O=C(Nc1cccc(F)c1)Nc1ncccn1
inactive: [7] 90 % of control | [8] 86 % of control | [9] 100 % of control

CCCCCCC[As](=O)(O)O
inactive: dose: 6.25 mg/kg/injection, schedule: Q01DX009 (ip), vehicle: Klucel (hydroxypropylcellulose) (HPC) 99 % of control | [6] 101 % of control

CCOC(=O)C(Br)(C(=O)OCC)C(=O)c1cc(-c2ccc(Cl)c(Cl)c2)nc2c(Cl)cc(Cl)cc12
inactive: dose: 100.0 mg/kg/injection, schedule: Q01DX001 (ip), vehicle: Klucel (hydroxypropylcellulose) (HPC) 103 % of control | [11] 95 % of control | dose: 200.0 mg/kg/injection, schedule: Q01DX001 (ip), vehicle: Klucel (hydroxypropylcellulose) (HPC) 111 % of control | [12] 96 % of control | dose: 400.0 mg/kg/injection, schedule: Q01DX001 (ip), vehicle: Klucel (hydroxypropylcellulose) (HPC) 105 % of control | [13] 95 % of control

CCCC[Si](Cl)(CCCC)CCCC
inactive: [3] 90 % of control | [14] 95 % of control | [4] 92 % of control | [15] 108 % of control | [5] 90 % of control | dose: 400.0 mg/kg/injection, schedule: Q01DX001 (ip), vehicle: saline 90 % of control

CC(=O)OCC1OC(N2CCc3cc([N+](=O)[O-])ccc32)C(OC(C)=O)C(OC(C)=O)C1OC(C)=O (centres undefined)
inactive: [16] 97 % of control | [14] 96 % of control | [15] 96 % of control

CCOC(=O)C(O)(CC)c1cc[n+](Cc2cc3ccccc3nc2Cl)cc1C (centres undefined)
inactive: [16] 115 % of control | [14] 94 % of control

CCCCNC(=O)CSc1cc(Cl)c(Cl)cc1Cl
inactive: [17] 91 % of control | dose: 200.0 mg/kg/injection, schedule: Q01DX001 (ip), vehicle: saline with Tween-80 91 % of control | dose: 400.0 mg/kg/injection, schedule: Q01DX001 (ip), vehicle: saline with Tween-80 95 % of control

CNC(=O)OCCOC(=O)NC
inactive: dose: 100.0 mg/kg/injection, schedule: Q01DX001 (ip), vehicle: other 98 % of control | dose: 100.0 mg/kg/injection, schedule: Q01DX009 (ip), vehicle: other 96 % of control | dose: 100.0 mg/kg/injection, schedule: Q04DX003 (ip), vehicle: other 102 % of control | dose: 200.0 mg/kg/injection, schedule: Q01DX001 (ip), vehicle: other 109 % of control | dose: 200.0 mg/kg/injection, schedule: Q01DX009 (ip), vehicle: other 102 % of control | dose: 200.0 mg/kg/injection, schedule: Q04DX003 (ip), vehicle: other 97 % of control | dose: 400.0 mg/kg/injection, schedule: Q01DX001 (ip), vehicle: other 98 % of control | dose: 400.0 mg/kg/injection, schedule: Q01DX009 (ip), vehicle: other 89 % of control | dose: 400.0 mg/kg/injection, schedule: Q04DX003 (ip), vehicle: other 111 % of control

COc1cc(OC)c(NC(=O)c2ccccc2Cl)cc1Cl
inactive: [11] 92 % of control | [12] 90 % of control | [13] 93 % of control

O/N=C1\CCn2cccc21
inactive: [1] 91 % of control | [2] 91 % of control | [10] 87 % of control

O=[N+]([O-])c1ccc(N/N=C/c2ccc(N(CCO)CCO)cc2)c([N+](=O)[O-])c1
inactive: dose: 25.0 mg/kg/injection, schedule: Q01DX001 (ip), vehicle: saline with Tween-80 88 % of control | dose: 50.0 mg/kg/injection, schedule: Q01DX001 (ip), vehicle: saline with Tween-80 90 % of control | [17] 98 % of control

O=C(CNC(=O)c1ccccc1)N/N=C/c1ccncc1
inactive: dose: 25.0 mg/kg/injection, schedule: Q01DX009 (ip), vehicle: saline with Tween-80 91 % of control | dose: 50.0 mg/kg/injection, schedule: Q01DX009 (ip), vehicle: saline with Tween-80 93 % of control | [7] 86 % of control

O=C(O)c1c(Br)c(Br)c(Br)c(Br)c1C(=O)Nc1cccc(C(F)(F)F)c1
inactive: [11] 107 % of control | [12] 108 % of control | [13] 107 % of control

C=CCOC(=O)CCOCC
inactive: dose: 55.0 mg/kg/injection, schedule: Q01DX Z (ip), vehicle: methylcellulose (MC) 90 % of control | dose: 83.0 mg/kg/injection, schedule: Q01DX Z (ip), vehicle: methylcellulose (MC) 94 % of control | dose: 125.0 mg/kg/injection, schedule: Q01DX Z (ip), vehicle: methylcellulose (MC) 90 % of control

O=C1OCC/C1=C/OCCCCCO/C=C1/CCOC1=O
inactive: dose: 100.0 mg/kg/injection, schedule: Q04DX002 (ip), vehicle: Klucel (hydroxypropylcellulose) (HPC) 106 % of control | dose: 200.0 mg/kg/injection, schedule: Q04DX002 (ip), vehicle: Klucel (hydroxypropylcellulose) (HPC) 97 % of control | dose: 400.0 mg/kg/injection, schedule: Q04DX002 (ip), vehicle: Klucel (hydroxypropylcellulose) (HPC) 90 % of control

CCc1ccccc1NC(=O)Nc1nccs1
inactive: [11] 116 % of control | [12] 110 % of control

CCCCCCCCP(=O)(N1CC1CC)N1CC1CC (centres undefined)
inactive: [16] 101 % of control | [14] 103 % of control | [15] 101 % of control

From PubChem BioAssay AID248 (DTP/NCI, 2004)
